Literature values, collected in US20250134912A1 (Theaprin Pharmaceuticals, Inc., priority 2021, published 2025).

Legend:
[1] = at 25° C.
patients with COVID-19 = conditions: 31 patients with COVID-19, in comparison to the controlled patients
SARS-COV-2 = conditions: SARS-COV-2, in vitro
[2] = test system: critically ill children with suspected zinc deficiency; conditions: in vivo, iv, 0.75 mg/kg/day
[3] = test system: hospitalized patients with COVID-19; conditions: aspirin used was not an aspirin/theanine cocrystal

**Q.** With `[Cl-].[Cl-].[Zn+2]` [zinc chloride, Zinc chloride] as the compound, how does the water solubility [1] read?
**A.** The water solubility was 432 g/100 ml water.

**Q.** Which clinical outcomes (patients with COVID-19) does the source give for `OCCN(CCO)c1nc(N2CCCCC2)c2nc(N(CCO)CCO)nc(N3CCCCC3)c2n1` [dipyridamole, 2,6 bis-(diethanolamino)-4,8 dipiperidino-pyrimido-(5,4-d)pyrimidine] here?
**A.** The clinical outcomes was “markedly improved”.

**Q.** And the “lymphocyte and plasma platelet recovery” value (patients with COVID-19)?
**A.** Its value is “increased”.

**Q.** And the D-Dimer (patients with COVID-19; P>0.05)?
**A.** Its D-Dimer is “significantly decreased”.

**Q.** What about the “viral replication in vitro” value (SARS-COV-2) of the same compound?
**A.** Its value is “suppressed”.

**Q.** Which adverse effects [2] does the source give for `[Zn]` [Elemental zinc] here?
**A.** Its adverse effects is “without producing any adverse effects”.

**Q.** For `CC(=O)Oc1ccccc1C(=O)O` [aspirin, acetylsalicylic acid], which “mechanical ventilation, ICU admission, and in-hospital mortality” value [3] is on record?
**A.** Its value is “decrease”.
